Measurements taken from ChEMBL document CHEMBL1126456, “Vinylogous hydroxamic acids: 5-lipoxygenase inhibitors” (Bioorg Med Chem Lett, 1992).

Columns and labels:
[1] = molecular target: T1, Polyunsaturated fatty acid 5-lipoxygenase (Rattus norvegicus, UniProt P12527); assay: Inhibition of 5-Lipoxygenase of rat basophilic leukemia cells; format: cell-based, RBL-1
T1 sequence (P12527 whole entry): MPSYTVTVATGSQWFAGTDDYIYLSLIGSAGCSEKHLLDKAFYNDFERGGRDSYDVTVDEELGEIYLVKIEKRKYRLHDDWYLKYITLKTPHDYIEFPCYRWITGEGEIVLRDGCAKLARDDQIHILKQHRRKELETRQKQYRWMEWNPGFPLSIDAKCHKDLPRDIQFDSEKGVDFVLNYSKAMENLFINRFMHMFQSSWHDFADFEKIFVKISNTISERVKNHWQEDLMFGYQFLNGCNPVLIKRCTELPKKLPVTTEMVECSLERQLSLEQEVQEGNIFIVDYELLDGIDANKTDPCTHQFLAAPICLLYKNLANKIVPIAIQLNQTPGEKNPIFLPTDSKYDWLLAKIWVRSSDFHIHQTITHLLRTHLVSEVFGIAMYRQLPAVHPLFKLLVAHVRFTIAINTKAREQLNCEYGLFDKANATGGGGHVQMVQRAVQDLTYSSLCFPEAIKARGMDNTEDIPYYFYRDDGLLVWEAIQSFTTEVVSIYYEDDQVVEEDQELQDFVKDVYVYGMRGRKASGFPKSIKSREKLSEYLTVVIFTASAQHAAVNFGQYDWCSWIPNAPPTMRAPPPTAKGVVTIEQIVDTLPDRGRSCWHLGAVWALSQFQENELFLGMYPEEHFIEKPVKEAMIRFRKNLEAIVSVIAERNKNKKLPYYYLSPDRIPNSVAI

Cyclooxygenase = molecular target: T2, Cyclooxygenase (Bos taurus, UniProt O62664+O62698); assay: Compound was evaluated for inhibition against cyclooxygenase of bovine seminal vesicles; format: protein assay
T2 sequence (O62664 whole entry): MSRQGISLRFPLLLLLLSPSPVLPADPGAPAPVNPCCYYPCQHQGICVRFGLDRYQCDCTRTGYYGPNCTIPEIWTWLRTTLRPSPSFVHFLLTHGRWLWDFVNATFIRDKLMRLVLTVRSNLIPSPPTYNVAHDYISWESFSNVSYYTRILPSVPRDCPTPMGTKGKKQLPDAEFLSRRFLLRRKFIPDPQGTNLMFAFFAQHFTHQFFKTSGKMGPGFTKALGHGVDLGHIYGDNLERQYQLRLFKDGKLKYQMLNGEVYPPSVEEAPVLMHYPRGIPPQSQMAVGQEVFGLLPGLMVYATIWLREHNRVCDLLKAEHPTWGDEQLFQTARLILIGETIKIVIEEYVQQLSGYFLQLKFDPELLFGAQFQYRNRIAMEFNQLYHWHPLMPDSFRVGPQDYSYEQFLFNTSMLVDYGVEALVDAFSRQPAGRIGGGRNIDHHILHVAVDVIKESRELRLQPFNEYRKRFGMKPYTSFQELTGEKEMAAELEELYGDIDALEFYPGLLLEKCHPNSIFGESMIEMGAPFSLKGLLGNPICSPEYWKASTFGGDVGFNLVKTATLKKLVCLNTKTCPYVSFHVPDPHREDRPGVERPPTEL
T2 sequence (O62698 whole entry): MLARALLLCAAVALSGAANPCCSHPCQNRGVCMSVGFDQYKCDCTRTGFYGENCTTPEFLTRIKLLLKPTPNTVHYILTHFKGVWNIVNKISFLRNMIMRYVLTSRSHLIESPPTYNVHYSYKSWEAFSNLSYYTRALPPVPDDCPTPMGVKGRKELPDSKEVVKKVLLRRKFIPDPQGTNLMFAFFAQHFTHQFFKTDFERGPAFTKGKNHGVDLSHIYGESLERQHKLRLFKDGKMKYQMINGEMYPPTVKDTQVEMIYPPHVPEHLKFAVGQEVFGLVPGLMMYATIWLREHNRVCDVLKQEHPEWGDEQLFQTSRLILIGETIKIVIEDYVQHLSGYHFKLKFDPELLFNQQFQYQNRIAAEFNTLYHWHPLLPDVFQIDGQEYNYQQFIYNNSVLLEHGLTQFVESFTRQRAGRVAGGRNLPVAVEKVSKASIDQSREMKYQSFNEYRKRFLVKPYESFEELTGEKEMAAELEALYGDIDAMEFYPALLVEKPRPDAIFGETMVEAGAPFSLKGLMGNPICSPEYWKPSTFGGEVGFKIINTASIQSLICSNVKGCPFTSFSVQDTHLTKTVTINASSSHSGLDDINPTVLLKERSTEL

IC50 [1] [µM]	IC50 (Cyclooxygenase) [µM]	SMILES
0.3	–	C/C(=C/N(O)Cc1ccccc1)C(=O)c1ccc(F)cc1
–	> 750	O=C(/C=C\N(O)Cc1ccccc1)c1ccc(F)cc1
–	> 750	CC(=O)ON(/C=C\C(=O)c1ccc(F)cc1)Cc1ccccc1
–	> 750	CON(/C=C\C(=O)c1ccc(F)cc1)Cc1ccccc1
–	> 750	O=C(/C=C\N(O)C1CCCCC1)c1ccc(F)cc1
–	6.9	O=C1CCN(c2ccccc2)N1 [PHENIDONE]
–	> 750	CC(c1cc2ccccc2s1)N(O)C(N)=O (configuration not stated) [ZILEUTON]
